From patent publication US20240075029A1, “LUMINOL FOR THE PROPHYLAXIS AND THE TREATMENT OF SEQUELAE OF A SARS-COV-2 INFECTION” (METRIOPHARM AG, priority 2020, published 2024)
Read-outs that look alike come from different tables or passages of the source.

How the values were obtained:
joint pain = conditions: human, in vivo
[1] = system: cigarette smoke-induced 3-nitrotyrosine formation in the lung parenchyma; conditions: for 3-nitrotyrosine stained surface area, mean ± SEM: n=5
Source text: The isolated, ventilated and perfused mouse lung system (ILU) is an established model for studying acute effects of various conditions and drugs on lung parenchyma and vasculature. It is mainly used for examining effects of hypoxia and for evaluating the efficacy of potential drugs on the hypoxic pulmonary vasoreaction (cf. Weissmann et al. (2006) Proc Natl Acad Sci USA 103: 19093-19098).
C57BL/6J mice (n=25, 5 per group; male/female, 3-6 months, 20-30 g; Charles River GmbH, Sulzfeld, Germany) were anesthetized with a ketamine (100 mg/kg body weight) and xylazine (20 mg/kg body weight) intraperitoneal injection (Ceva Tiergesundheit GmbH, Dusseldorf, Germany) containing heparin (50 I.E. heparin/g body weight; Ratiopharm GmbH, Ulm, Germany). […] Lungs were ventilated in an isolated chamber using normoxic gas (21% O2, 5% CO2, 74% N2; 150 breaths per minute at the PEEP (positive end-expiratory pressure) of 3 cm H2O) and perfused with a modified Krebs-Henseleit buffer (120.0 mM NaCl, 4.3 mM KCl, 1.1 mM KH2PO4, 2.4 mM CaCl2, 1.3 mM MgCl2, 13.14 mM glucose, 0.25 mM hydroxyethyl starch 200000/0.5, 25.0 mM NaHCO3 adjusted to a constant pH range of […] L-arginine; Serag-Wissner GmbH & Co. KG, Naila, Germany) at a temperature of 37° C. Lung weight, right and left ventricle pressure, as well as ventilatory pressure were monitored and recorded during the whole experimental procedure. After 5-10 minutes, when the lung was properly flushed and all the parameters were stable, 5-amino-2,3-dihydro-1,4-phthalazinedione sodium salt was applied by adding 150 μl of a stock solution to 15 ml of the circulating perfusion buffer. The substance was applied 10 minutes prior to the first cigarette smoke application. Cigarette smoke was applied via trachea while lung is perfused with the buffer containing 5-amino-2,3-dihydro-1,4-phthalazinedione sodium salt. […] 50 ml of the cigarette smoke were taken via a syringe and applied to the lung via trachea (FIG. 4A) in deep breaths (periodic inflation for 3-4 s) over a period of 5 min. The application was done manually while carefully monitoring the inspiratory pressure to avoid damage of the lung. The cigarette smoke application was repeated three times with a 1 hour break in-between.
Five treatment groups (n=5, respectively) were investigated: • A: room air exposure • B: cigarette smoke+diluent (buffer solution) • C: cigarette smoke+0.5 mM 5-amino-2,3-dihydro-1,4-phthalazinedione sodium salt • D: cigarette smoke+1 mM 5-amino-2,3-dihydro-1,4-phthalazinedione sodium salt • E: cigarette smoke+2 mM 5-amino-2,3-dihydro-1,4-phthalazinedione sodium salt
5-amino-2,3-dihydro-1,4-phthalazinedione sodium salt Form I was dissolved in water for injection (vehicle) at the required concentrations described above. Stock solutions were prepared in water for injection. Further 1:100 dilutions were made with modified Krebs-Henseleit buffer (see above). Stock solutions were stored at −70° C. in appropriate aliquots. The required amount of stock solution was thawed, and the corresponding working solution was prepared for immediate use.
One hour after the third cigarette smoke application lungs were removed from the system and fixed by inflating with formalin solution (via trachea) at the pressure of 12-15 cm H2O for two hours at room temperature. Afterwards the fixed lungs were kept in PBS (phosphate buffer saline, see below) at +4° C. until further dehydration and paraffin embedding. Paraffin blocks were cut 3 μm thick, dried overnight at 37° C. and stained for 3-nitrotyrosine (3-NT).

SARS-CoV-2 = conditions: Vero B4 cell culture; Schumann et al. (2020); cited from earlier work
dyspnea = conditions: human, in vivo
[2] = system: murine peritoneal macrophages
Source text: Female C57131/6 mice (6-8 weeks old) were purchased from Envigo (San Petro al Natisone, Udine, Italy) and housed under standard laboratory conditions (specific-pathogen free). Food and water were applied ad libitum. Animal handling and the study protocol were in accordance with international guidelines.
Four days after i.p. injection of 3% thioglycolate medium (w/v in distilled water; St Louis, MO USA), murine peritoneal macrophages (PM) were isolated according to the protocol of Zhang et al. (Curr. Protoc. Immunol. 2008, Chapter 14, Unit 14.1).
Briefly, cells were collected by injecting 10 ml of complete medium (DMEM/F12 Medium containing 10% fetal calf serum) into the peritoneal cavity using a 30 cc syringe attached to a 19-G needle, followed by slowly withdrawing the lavage fluid. Cells were washed twice in PBS (phosphate buffered saline) and counted.
One hour prior to LPS (lipopolysaccharide) stimulation (0.1 μg/ml; Escherichia coli 055:B5, St Louis, MO USA), cells (0.5×10^6 cells/well in 24-well plates with 1 ml total volume of medium) were pre-treated with scalar concentrations of 5-amino-2,3-dihydro-1,4-phthalazinedione sodium salt (ranging from 1 mM to 0.025 mM). Two independent experiments (each using cells pooled from three mice) were performed and secreted cytokine levels were determined 24, 48 and 72 h after LPS stimulation using ELISA technique.

chronic fatigue = conditions: human, in vivo
[3] = 1 mM, pre-treatment 1 h prior to LPS (0.1 μg/ml), LPS only = 100%, C57 mice PMs

With Nc1cccc2c(=O)[nH][nH]c(=O)c12.[Na] [5-amino-2,3-dihydro-1,4-phthalazinedione sodium salt] the joint pain (joint pain) was “continuous waning of the joint pain”, the “cigarette smoke induced 3-nitrotyrosine formation (immunohistochemistry, in words)” value ([1]; 0.5 mM in perfusion buffer) was “moderate effect” and the “cigarette smoke induced 3-nitrotyrosine formation (immunohistochemistry, in words)” value ([1]; 1 mM in perfusion buffer) was “almost completely abolished”. For the same compound, the “cigarette smoke induced 3-nitrotyrosine formation (immunohistochemistry, in words)” value ([1]; 2 mM in perfusion buffer) was “almost completely abolished”, the “3-nitrotyrosine stained surface area, mean ± SEM” value ([1]; cigarette smoke + 0.5 mM in perfusion buffer) was 2.24 ± 0.28 % area and the “3-nitrotyrosine stained surface area, mean ± SEM” value ([1]; cigarette smoke + 1 mM in perfusion buffer) was 0.72 ± 0.26 % area. The “3-nitrotyrosine stained surface area, mean ± SEM” value ([1]; cigarette smoke + 2 mM in perfusion buffer) was 0.37 ± 0.13 % area, the “replication of SARS-CoV-2” value (SARS-CoV-2) was “almost completely block” and the “physical performance (dyspnea)” value (dyspnea) was “continuous improvement of the physical performance”. For the same compound, the “reduction of IL-1-beta level” value [2, 3] was about 50%, the “reduction of IL-6 level” value [2, 3] was about 80% and the “reduction of IL-12 level” value [2, 3] was about 60%. The “reduction of TNF-alpha level” value [2, 3] was “about 40%”, the “cytokine reduction in PMs of a second mouse strain (Balb/c)” value ([2]; Balb/c PMs, six concentrations ranging from 1 mM to 0.25 mM, data not shown) was “clear dose-dependency” and the “cytokine secretion of unstimulated murine PMs” value ([2]; no LPS stimulation, data not shown) was “did not affect”. For the same compound, the “symptoms of chronic fatigue” value (chronic fatigue) was “continuous waning of the symptoms”.
